# Test results as given in US20120225862A1, “HETEROARYL BENZAMIDES, COMPOSITIONS AND METHODS OF USE” (AUCKLAND UNIVSERVICES LIMITED, priority 2009, published 2012).
# Columns and labels:
# hexokinase = assay: Hexokinase activity in whole cell lysates, RCC4; type: cell-based, human; details: 5 μM
# Procedure: (§1) All cells were grown in DMEM+10% FCS. ACHN and ACHN shVHL were a kind gift from George V. Thomas (UCLA). HIF overexpressing clones were described previously. Transfection of RNA oligos were performed with DnarmaFECT Reagent 1 (Dharmcon), according to manufacturer's directions. ON-TARGETplus SMART pools against HIF-1β/ARNT were purchased from Dharmacon. Glut1 was detected with anti-GLUT1 antibody from NeoMarkers/LabVision/Fisher. Pyruvate/lactate levels and hexokinase activity were both measured by fluorometric assay (BioVision and Sigma-Aldrich, respectively). ATP levels were measured by bioluminescence assay (ATP Determination Kit from Molecular Probes/Invitrogen). In vitro kinase activities were performed by Millipore KinaseProfiler. Affi-Gel 10 (BioRad) activated affinity media was coupled to analogs to generate immobilized affinity linkers.
# We then examined whether this decrease in glycolysis in response to compound 47 was due to a decrease in glucose uptake or whether compound 47 inhibited a particular glycolytic enzyme. To test this, we measured glucose uptake using 2-deoxy-D-[^3H] glucose, a non-hydrolyzable, radioactive glucose analog, following two days of treatment with compound 47. […] RCC4/VHL cells had lower baseline levels of glucose uptake compared to RCC4 cells and were unaffected by treatment with compound 47. […]
# MLK1 = target: T1, MLK1 (Homo sapiens, UniProt P80192); assay: In vitro kinase activity (Millipore KinaseProfiler): MLK1; type: biochemical; details: no head or unit printed
# T1 construct: purchased Millipore (KinaseProfiler service)
# T1 sequence (P80192 whole entry, species assumed): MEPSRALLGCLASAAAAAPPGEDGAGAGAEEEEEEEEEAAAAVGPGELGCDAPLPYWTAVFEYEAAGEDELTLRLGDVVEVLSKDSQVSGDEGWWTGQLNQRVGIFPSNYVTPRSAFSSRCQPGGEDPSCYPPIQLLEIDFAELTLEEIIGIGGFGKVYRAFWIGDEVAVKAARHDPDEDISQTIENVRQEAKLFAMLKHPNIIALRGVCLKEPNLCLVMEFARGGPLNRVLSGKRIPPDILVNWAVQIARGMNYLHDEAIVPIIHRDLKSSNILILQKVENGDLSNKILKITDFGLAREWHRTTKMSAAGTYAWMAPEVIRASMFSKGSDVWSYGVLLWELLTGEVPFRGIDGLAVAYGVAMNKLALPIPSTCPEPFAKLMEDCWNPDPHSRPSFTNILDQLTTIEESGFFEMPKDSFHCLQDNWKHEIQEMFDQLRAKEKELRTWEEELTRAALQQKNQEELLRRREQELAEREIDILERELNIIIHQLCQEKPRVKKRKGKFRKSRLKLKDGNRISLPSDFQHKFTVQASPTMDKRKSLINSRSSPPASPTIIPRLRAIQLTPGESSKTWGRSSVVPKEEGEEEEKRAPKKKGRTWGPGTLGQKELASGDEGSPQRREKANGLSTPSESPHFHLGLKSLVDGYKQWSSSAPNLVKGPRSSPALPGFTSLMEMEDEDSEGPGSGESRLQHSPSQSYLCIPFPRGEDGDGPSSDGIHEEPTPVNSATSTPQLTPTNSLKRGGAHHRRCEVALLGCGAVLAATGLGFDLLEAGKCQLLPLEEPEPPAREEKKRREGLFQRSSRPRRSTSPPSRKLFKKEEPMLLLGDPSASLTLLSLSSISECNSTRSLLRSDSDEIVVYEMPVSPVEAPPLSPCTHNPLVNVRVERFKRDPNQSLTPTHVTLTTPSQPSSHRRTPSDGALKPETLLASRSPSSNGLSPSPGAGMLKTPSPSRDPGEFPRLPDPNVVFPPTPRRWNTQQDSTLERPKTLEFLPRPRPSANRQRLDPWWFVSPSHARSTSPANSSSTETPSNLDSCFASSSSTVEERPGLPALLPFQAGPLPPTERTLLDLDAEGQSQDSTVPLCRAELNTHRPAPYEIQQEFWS
# Procedure: as §1
# (§2) We next wanted to investigate the differential glucose uptake between RCCs with and without VHL treated with compound 47 that subsequently lead to the selective death of VHL-deficient cells. We first examined the message levels of the two main glucose transporters, GLUT1 and GLUT2 by quantitative real-time PCR. GLUT1 is an inducible, high-affinity glucose transporter, while GLUT2 is the glucose transporter responsible for basal glucose uptake. […] Cells deficient in VHL had very low levels of GLUT2 that could barely be detected (FIG. 3J). […]
# JAK2 = target: T2, JAK2 (Homo sapiens, UniProt O60674); assay: In vitro kinase activity (Millipore KinaseProfiler): JAK2; type: biochemical; details: no head or unit printed
# T2 construct: purchased Millipore (KinaseProfiler service)
# Procedure: as §1, §2
# FGFR1 = target: T3, FGFR1 (Homo sapiens, UniProt P11362); assay: In vitro kinase activity (Millipore KinaseProfiler): FGFR1; type: biochemical; details: no head or unit printed
# T3 construct: purchased Millipore (KinaseProfiler service)
# T3 sequence (P11362 22-822, species assumed): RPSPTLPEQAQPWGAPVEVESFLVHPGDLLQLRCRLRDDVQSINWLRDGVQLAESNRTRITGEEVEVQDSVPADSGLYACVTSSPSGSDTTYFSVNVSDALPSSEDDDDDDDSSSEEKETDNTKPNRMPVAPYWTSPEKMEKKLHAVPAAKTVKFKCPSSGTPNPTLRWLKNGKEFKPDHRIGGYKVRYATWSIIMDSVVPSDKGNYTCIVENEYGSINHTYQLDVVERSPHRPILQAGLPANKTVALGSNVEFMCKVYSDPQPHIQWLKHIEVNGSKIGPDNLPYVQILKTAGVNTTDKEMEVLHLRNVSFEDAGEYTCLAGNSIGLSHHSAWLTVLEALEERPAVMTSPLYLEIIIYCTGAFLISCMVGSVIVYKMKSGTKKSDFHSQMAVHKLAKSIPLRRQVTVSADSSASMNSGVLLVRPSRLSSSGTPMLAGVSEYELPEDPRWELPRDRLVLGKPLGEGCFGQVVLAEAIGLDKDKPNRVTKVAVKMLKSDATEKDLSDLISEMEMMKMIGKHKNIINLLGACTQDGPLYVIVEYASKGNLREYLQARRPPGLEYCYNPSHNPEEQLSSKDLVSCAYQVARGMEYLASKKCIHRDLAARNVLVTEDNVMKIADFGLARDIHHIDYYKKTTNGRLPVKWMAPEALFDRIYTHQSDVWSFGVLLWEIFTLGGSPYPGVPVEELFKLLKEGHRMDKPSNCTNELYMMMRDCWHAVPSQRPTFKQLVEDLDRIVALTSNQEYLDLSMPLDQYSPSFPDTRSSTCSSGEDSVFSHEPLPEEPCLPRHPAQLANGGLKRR
# Procedure: as §1, §2
# 50 different kinases = assay: In vitro kinase panel (Millipore KinaseProfiler), summary; type: biochemical
# Procedure: as §1, §2
# IGF-1R = target: T4, IGF-1R (Homo sapiens, UniProt P08069); assay: In vitro kinase activity (Millipore KinaseProfiler): IGF-1R; type: biochemical; details: no head or unit printed
# T4 construct: purchased Millipore (KinaseProfiler service)
# T4 sequence (P08069 31-1367, species assumed): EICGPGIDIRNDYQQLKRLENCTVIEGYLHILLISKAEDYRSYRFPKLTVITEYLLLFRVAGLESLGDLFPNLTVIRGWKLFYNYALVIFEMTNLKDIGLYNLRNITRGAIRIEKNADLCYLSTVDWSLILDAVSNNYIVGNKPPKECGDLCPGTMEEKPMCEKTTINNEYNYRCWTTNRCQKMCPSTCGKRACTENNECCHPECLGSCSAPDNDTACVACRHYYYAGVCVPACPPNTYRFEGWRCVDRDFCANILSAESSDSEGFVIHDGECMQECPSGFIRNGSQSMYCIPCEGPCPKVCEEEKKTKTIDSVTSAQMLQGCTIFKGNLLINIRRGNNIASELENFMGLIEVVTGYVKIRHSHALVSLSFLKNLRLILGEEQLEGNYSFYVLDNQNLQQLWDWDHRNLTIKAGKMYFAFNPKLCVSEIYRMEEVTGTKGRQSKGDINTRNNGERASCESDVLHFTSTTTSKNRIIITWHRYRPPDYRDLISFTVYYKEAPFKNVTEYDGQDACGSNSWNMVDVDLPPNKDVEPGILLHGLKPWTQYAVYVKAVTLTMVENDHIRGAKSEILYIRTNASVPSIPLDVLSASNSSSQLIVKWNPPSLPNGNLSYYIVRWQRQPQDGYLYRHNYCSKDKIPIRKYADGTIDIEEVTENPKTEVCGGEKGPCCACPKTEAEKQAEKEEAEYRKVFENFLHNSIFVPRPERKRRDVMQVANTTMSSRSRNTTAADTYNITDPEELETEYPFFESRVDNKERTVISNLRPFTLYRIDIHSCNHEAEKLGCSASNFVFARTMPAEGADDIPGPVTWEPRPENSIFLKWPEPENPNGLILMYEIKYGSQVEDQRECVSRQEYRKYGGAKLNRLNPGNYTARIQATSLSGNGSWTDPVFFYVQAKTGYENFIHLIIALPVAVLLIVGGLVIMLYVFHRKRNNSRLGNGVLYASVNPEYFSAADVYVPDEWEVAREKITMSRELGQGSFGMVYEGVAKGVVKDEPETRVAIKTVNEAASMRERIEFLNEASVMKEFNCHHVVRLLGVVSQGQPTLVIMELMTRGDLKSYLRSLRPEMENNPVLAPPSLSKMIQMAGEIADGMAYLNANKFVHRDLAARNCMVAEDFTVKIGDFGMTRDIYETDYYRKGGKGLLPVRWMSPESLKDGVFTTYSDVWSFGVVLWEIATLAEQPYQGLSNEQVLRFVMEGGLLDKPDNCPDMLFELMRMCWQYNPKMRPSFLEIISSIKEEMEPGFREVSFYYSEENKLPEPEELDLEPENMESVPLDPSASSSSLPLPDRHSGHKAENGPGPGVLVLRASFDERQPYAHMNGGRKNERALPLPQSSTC
# Procedure: as §1, §2
# DYRK2 = target: T5, DYRK2 (Homo sapiens, UniProt Q92630); assay: In vitro kinase activity (Millipore KinaseProfiler): DYRK2; type: biochemical; details: no head or unit printed
# T5 construct: purchased Millipore (KinaseProfiler service)
# T5 sequence (Q92630 whole entry, species assumed): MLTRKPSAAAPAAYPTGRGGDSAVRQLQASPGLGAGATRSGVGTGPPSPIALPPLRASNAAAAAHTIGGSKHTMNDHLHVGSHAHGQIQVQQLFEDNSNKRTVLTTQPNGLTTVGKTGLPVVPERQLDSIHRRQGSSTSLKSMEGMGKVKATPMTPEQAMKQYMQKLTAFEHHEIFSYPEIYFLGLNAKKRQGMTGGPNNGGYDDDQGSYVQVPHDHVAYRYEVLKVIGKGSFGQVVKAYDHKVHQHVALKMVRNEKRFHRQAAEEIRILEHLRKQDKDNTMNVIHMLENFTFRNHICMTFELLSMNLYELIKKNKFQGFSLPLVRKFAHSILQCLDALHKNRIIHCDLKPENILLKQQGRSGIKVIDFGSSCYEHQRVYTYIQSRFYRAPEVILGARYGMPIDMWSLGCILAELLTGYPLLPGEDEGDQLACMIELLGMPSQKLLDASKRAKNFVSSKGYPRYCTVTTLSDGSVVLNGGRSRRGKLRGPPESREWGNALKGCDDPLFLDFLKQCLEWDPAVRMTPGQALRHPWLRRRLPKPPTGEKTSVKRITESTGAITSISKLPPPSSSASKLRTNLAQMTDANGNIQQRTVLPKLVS
# Procedure: as §1, §2
# MEK1 = target: T6, MEK1 (Homo sapiens, UniProt Q02750); assay: In vitro kinase activity (Millipore KinaseProfiler): MEK1; type: biochemical; details: no head or unit printed
# T6 construct: purchased Millipore (KinaseProfiler service)
# Procedure: as §1, §2
# cKit(D816H) = target: T7, cKit(D816H) (Homo sapiens, UniProt P10721, D816H); assay: In vitro kinase activity (Millipore KinaseProfiler): cKit(D816H); type: biochemical; details: no head or unit printed
# T7 construct: purchased Millipore (KinaseProfiler service)
# T7 sequence (P10721 26-976 D816H): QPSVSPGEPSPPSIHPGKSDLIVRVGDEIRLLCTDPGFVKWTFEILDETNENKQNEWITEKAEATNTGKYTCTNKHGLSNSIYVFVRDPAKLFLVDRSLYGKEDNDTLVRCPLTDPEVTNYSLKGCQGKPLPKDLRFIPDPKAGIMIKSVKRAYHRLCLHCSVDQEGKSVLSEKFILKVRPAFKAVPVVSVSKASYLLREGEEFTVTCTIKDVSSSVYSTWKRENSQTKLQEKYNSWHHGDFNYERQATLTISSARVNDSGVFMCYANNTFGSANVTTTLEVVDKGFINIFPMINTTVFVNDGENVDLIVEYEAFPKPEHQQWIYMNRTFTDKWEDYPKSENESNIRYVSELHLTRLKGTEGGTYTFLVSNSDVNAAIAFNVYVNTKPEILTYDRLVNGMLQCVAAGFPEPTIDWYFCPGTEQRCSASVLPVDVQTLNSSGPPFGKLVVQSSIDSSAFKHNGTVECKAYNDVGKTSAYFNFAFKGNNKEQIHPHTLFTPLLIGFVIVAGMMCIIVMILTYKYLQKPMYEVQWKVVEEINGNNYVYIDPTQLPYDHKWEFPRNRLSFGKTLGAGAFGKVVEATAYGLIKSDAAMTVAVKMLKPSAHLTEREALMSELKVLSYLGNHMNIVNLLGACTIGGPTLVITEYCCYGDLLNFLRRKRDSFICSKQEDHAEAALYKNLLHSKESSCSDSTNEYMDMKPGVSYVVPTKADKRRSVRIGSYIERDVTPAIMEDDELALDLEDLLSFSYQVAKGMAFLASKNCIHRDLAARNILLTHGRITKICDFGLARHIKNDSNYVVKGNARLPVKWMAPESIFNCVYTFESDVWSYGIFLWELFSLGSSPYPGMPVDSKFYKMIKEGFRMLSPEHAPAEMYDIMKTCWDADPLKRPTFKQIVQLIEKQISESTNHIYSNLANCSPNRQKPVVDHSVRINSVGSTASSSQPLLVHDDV
# Procedure: as §1, §2
# CHK1 = target: T8, CHK1 (Homo sapiens, UniProt O14757); assay: In vitro kinase activity (Millipore KinaseProfiler): CHK1; type: biochemical; details: no head or unit printed
# T8 construct: purchased Millipore (KinaseProfiler service)
# Procedure: as §1, §2
# RCC4/VHL [1] = assay: 3H-2-deoxyglucose uptake, RCC4/VHL; type: cell-based, human; details: 5 μM
# Procedure: (§3) One hundred thousand cells were plated into 6-well plates. The following day, the cells were treated with vehicle or drug and incubated for the indicated time. Cells were washed twice in phosphate buffered saline and low glucose media was added for 30 minutes. Cells were then incubated with 0.5 microCi of tritiated-2-deoxyglucose and incubated for an hour at 37° C. Cells were washed twice in PBS and then lysed in 0.2 N NaOH and 0.2% SDS. Lysates were transferred to scintillation tubes with scintillation fluid and quantified by scintillation counter.
# (§4) One hundred thousand cells were plated per well in a six-well plate. The next day, cells were treated with the indicated concentration of drug and incubated for the indicated time. Cells were then washed twice with phosphate-buffered saline, incubated in low-glucose medium for 30 minutes, and ^3H-2-deoxyglucose (0.5 μCi) was added in 1 ml of glucose-free media for an additional hour. Cells were washed twice in PBS and lysed (0.2 N NaOH and 0.2% sodium dodecyl sulfate). Glucose uptake was quantified with a scintillation counter.
# SAPK2a = target: T9, SAPK2a (Homo sapiens, UniProt Q16539); assay: In vitro kinase activity (Millipore KinaseProfiler): SAPK2a; type: biochemical; details: no head or unit printed
# T9 construct: purchased Millipore (KinaseProfiler service)
# Procedure: as §1, §2
# 786-O = assay: 3H-2-deoxyglucose uptake, 786-O; type: cell-based, human; details: 5 μM, FIG. 8B
# Procedure: as §3, §4
# RCC4/VHL [2] = assay: Lactate production (glycolysis), RCC4/VHL; type: cell-based, human; details: 5 μM
# Procedure: as §1
# As the central mediator of oxygen homeostasis, HIF plays an important role in the cellular adaptation to low oxygen conditions through the regulation of genes involved in metabolism and energy production. Inactivation of VHL results in an increase in the half-life of HIF protein. […] To examine whether this compound alters the rate of glycolysis in VHL-deficient cells, we measured the intracellular production of lactate, which is rapidly converted from pyruvate, the end-product of glycolysis. […]
smiles,measurement,setting,value
"CC(C)(C)c1ccc(S(=O)(=O)NCc2ccc(C(=O)Nc3cccnc3)cc2)cc1 [Example 38, 4-((4-tert-Butylphenylsulfonamido)methyl)-N-(pyridin-3-yl)benzamide]",hexokinase activity in RCC4,hexokinase,inhibited by compound 47 only after three days of treatment
same,MLK1 kinase activity,MLK1,97%
same,JAK2 kinase activity,JAK2,113
same,FGFR1 kinase activity,FGFR1,107%
same,decrease in activity of 50 different kinases,50 different kinases,no significant decrease
same,IGF-1R kinase activity,IGF-1R,108
same,DYRK2 kinase activity,DYRK2,94%
same,MEK1 kinase activity,MEK1,99
same,cKit(D816H) kinase activity,cKit(D816H),99
same,CHK1 kinase activity,CHK1,114
same,glucose uptake in RCC4/VHL cells,RCC4/VHL [1],unaffected
same,SAPK2a kinase activity,SAPK2a,127
same,glucose uptake in 786-O cells,786-O,impaired glucose uptake
same,effect on glycolysis (lactate) in cells with wild-type VHL,RCC4/VHL [2],did not affect glycolysis
